{"source": "patent US10344035B2", "about": "“Salt of quinolone compound, polymorphs thereof, preparation method therefor, composition, and applications” (SHANGHAI PHARMACEUTICALS HOLDING CO., LTD., priority 2015, dated 2019)", "key": {"[1]": {"test_system": "H1993 human lung cancer cell", "assay": "Inhibition of proliferation of human lung cancer H1993 cells (CCK-8)", "assay_type": "cell-based", "settings": "Homo sapiens, NCI-H1993, 72 h, CCK-8, 72 hours incubation; read-out: IC50, proliferation of H1993 cell line", "description": "CCK-8 is a kit for detecting cell proliferation, cell survival and cytotoxicity and an alternative method for the MTT method.\nAll samples were formulated to a 10^−2 M stock solution with DMSO and stored in small quantities at −80° C. for use.\n1, Cell culture and inoculation: on the first day of the experiment, took normal cultured cells, when cells were in the exponential growth phase, the cells were dispersed by digesting and then inoculated in a 96-well cell culture plate at a density of 5.5×10^4 cells/mL (representing 55000 cells per mL), 90 μL per well; after completion of inoculation, the microplate was placed at 37° C. under 5% CO2 condition overnight.\nAccording to different cell lines, the starting concentration of each compound was different.\n3, Data acquisition: the compound and cells were incubated for 72 hours, the microplate containing the cells was taken out from incubator, 10 μL Cell Counting Kit-8 reaction solution was added to each well, and the microplate was placed in an incubator for 2-3 hours. The absorbance values were measured at 450 nm on the Flexstation 3 and set 650 nm as the reference wavelength."}, "[2]": {"test_system": "human hepatoma MHCC97H cell line", "assay": "Anti-tumor effect in MHCC97H xenograft model", "assay_type": "in vivo, BALB/c nude mice", "settings": "for relative tumor volume (x ± S) / tumor volume (x ± S) / T/C / TGI (relative tumor inhibition rate): 25th day after dosing; for TGI (relative tumor inhibition rate): from relative tumor volume; for Tumor weight (x ± s) / TGI (tumor weight): 26th day after dosing; for TGI (tumor weight): from tumor weight", "description": "BALB/c nude mice were subcutaneously inoculated with MHCC97H cells to develop human hepatocellular carcinoma subcutaneously transplanted tumor model. The experiment was divided into groups including crystal form A of SPH1772 ditartrate (0.05 mg/kg, 0.5 mg/kg and 5 mg/kg), positive control INC280 hydrochloride (5 mg/kg), and Vehicle control group, 10 mice in each group, intragastric administration once a day, lasting 21 days. The efficacy was according to the relative tumor inhibition rate (TGI) and tumor growth delay time, the safety was evaluated according to animal weight and death.\nBALB/c nude mice, female, 7 to 9 weeks old (the age when mice were inoculated with tumor cells), weight 19.5 to 23.9 g, 75 animals. BALB/c nude mice were purchased from Shanghai Lingchang Biotechnology Co., Ltd., animal certificate number: 2013001816956. Rearing environment: SPF level.\nMHCC97H (Zhongshan Hospital subsidiary to Fudan University) was cultured in DMEM containing 10% fetal bovine serum. MHCC97H cells were collected during exponential growth phase, the cells in PBS was re-suspended to a suitable concentration for subcutaneous tumor inoculation in mice.\n0.2 mL 1×10^7 MHCC97H cells re-suspended in PBS and Matrigel (1:1) was subcutaneously inoculated to the right side of 75 mice. When the mean tumor volume reached 157 mm^3, mice were randomly grouped based on tumor volume. The formula for calculating the tumor volume was that long diameter×short diameter^2/2.\nRelative tumor inhibition rate TGI (%): TGI=1−T/C (%). T/C % is the relative tumor proliferation rate, which is the percentage of the relative tumor volume or tumor weight in the treatment group to that of the control group at a certain time. T and C are respectively the relative tumor volume (RTV) or tumor weight (TW) of the treatment group and control group at a certain time.\nThe formula was as follows: T/C %=TRTV/CRTV*100% (TRTV: mean RTV in the treatment group; CRTV: mean RTV in the control group; RTV=Vt/V0, V0 was the tumor volume of the animal when grouped, and Vt was the tumor volume of the animal after treatment). Or T/C %=TTW/CTW×100% (TTW: mean tumor weight in the treatment group at the end of the experiment; CTW: mean tumor weight in the control group at the end of experiment).\n1.5 h and 24 h after the last dose, blood and tumor were collected, the tumor was weighted, and photographs were taken.\nAll experimental results were expressed as mean tumor volume±SEM (mean standard error). Statistical analysis between different groups was performed on the best point of drug treatment (usually after the last dosing). The independent sample T test method was used to evaluate whether there was significant difference between the relative tumor volume and tumor weight in the treatment group to that of the control group. All data was analyzed by SPSS 18.0. p<0.05 was considered having significant differences."}, "[3]": {"assay": "in vivo", "settings": "SD, rat, in vivo, po, 20 umol/kg", "description": "All stock solutions of the test compound were sonicated and heated to become clarified and formulated to a 25 mM solution with DMSO.\nAll samples were dosed at 20 μmol/kg.\nThe blood sample was centrifuged at 8000 rpm for 5 min, the plasma was collected in a centrifuge tube and stored at −20° C. for use.\nTreatment of the plasma sample: the proteins in 50 μL plasma sample were precipitated with 200 μL acetonitrile containing internal standard (Propranolol (PRO), 2.5 ng/mL). Vortexed for 10 min, centrifuged at 6000 g for 10 min, the supernatant was taken and 5-fold diluted with the mobile phase, and the supernatant was injected into a 96-well plate for analysis.\nflow rate: 0.3 mL/min; injection volume: 2 μL; column temperature 45° C. The gradient elution procedure was: […]\nThe ion source was an electrospray ionization source (Turbo Ionspray, ESI); the electrospray voltage was 5500V; the temperature was 500° C.; pressure of ion source gas 1 (N2) was 50 psi; pressure of ion source gas 2 (N2) was 50 psi; pressure of curtain gas (N2) 20 psi; pressure of collision gas (CAD) was Medium; scan time was 100 ms; positive ion mode detection; scan mode was multiple reaction monitoring (MRM), ion reaction and collision energy (CE) for quantitative analysis, declustering potential (DP) are shown in the following table: […]"}, "[4]": {"settings": "0.05 mg/kg intragastric once a day"}, "[5]": {"settings": "0.5 mg/kg intragastric once a day"}, "[6]": {"settings": "5 mg/kg intragastric once a day"}}, "note": "Values joined by “and” are separate entries in the source; they are usually repeats but may differ in a detail not shown here. Equal values may be shown once."}
{"smiles": "Cn1cc(-c2cnc3ccc(Cn4nnc5ncc(-c6cnn(C)c6)nc54)cc3c2)cn1", "note": "[crystal form A of SPH1772 ditartrate]", "values": [{"measurement": "IC50", "setting": "[1]", "value": 0.7, "unit": "nM"}, {"measurement": "relative tumor volume (x ± S)", "setting": "[2]; [4]", "value": "3.03 ± 0.56"}, {"measurement": "tumor volume (x ± S)", "setting": "[2]; [4]", "value": "469 mm^3 and 469 ± 85 mm^3"}, {"measurement": "T/C", "setting": "[2]; 0.05 mg/kg", "value": 26, "unit": "%"}, {"measurement": "TGI (relative tumor inhibition rate)", "setting": "[2]; 0.05 mg/kg", "value": 74, "unit": "%"}, {"measurement": "Tumor weight (x ± s)", "setting": "[2]; 0.05 mg/kg", "value": "493 ± 71", "unit": "mg"}, {"measurement": "TGI (tumor weight)", "setting": "[2]; 0.05 mg/kg", "value": 69, "unit": "%"}, {"measurement": "relative tumor volume (x ± S)", "setting": "[2]; [5]", "value": "0.39 ± 0.03"}, {"measurement": "tumor volume (x ± S)", "setting": "[2]; [5]", "value": "60 mm^3 and 60 ± 5 mm^3"}, {"measurement": "T/C", "setting": "[2]; 0.5 mg/kg", "value": 3, "unit": "%"}, {"measurement": "TGI (relative tumor inhibition rate)", "setting": "[2]; 0.5 mg/kg", "value": 97, "unit": "%"}, {"measurement": "Tumor weight (x ± s)", "setting": "[2]; 0.5 mg/kg", "value": "48 ± 2", "unit": "mg"}, {"measurement": "TGI (tumor weight)", "setting": "[2]; 0.5 mg/kg", "value": 97, "unit": "%"}, {"measurement": "relative tumor volume (x ± S)", "setting": "[2]; [6]", "value": "0.14 ± 0.02"}, {"measurement": "tumor volume (x ± S)", "setting": "[2]; [6]", "value": "22 mm^3 and 22 ± 3 mm^3"}, {"measurement": "T/C", "setting": "[2]; 5 mg/kg", "value": 1, "unit": "%"}, {"measurement": "TGI (relative tumor inhibition rate)", "setting": "[2]; 5 mg/kg", "value": 99, "unit": "%"}, {"measurement": "Tumor weight (x ± s)", "setting": "[2]; 5 mg/kg", "value": "31 ± 3", "unit": "mg"}, {"measurement": "TGI (tumor weight)", "setting": "[2]; 5 mg/kg", "value": 98, "unit": "%"}, {"measurement": "AUCextra", "setting": "[3]", "value": 210.83, "unit": "µM·min"}, {"measurement": "AUCtot", "setting": "[3]", "value": 9012.96, "unit": "µM·min"}, {"measurement": "Clearance", "setting": "[3]", "value": 2, "unit": "mL/min/kg"}, {"measurement": "Vz", "setting": "[3]", "value": 0.760, "unit": "L/kg"}, {"measurement": "Cmax", "setting": "[3]; Cmax", "value": 16, "unit": "µM"}, {"measurement": "MRT", "setting": "[3]; MRT", "value": 7.89, "unit": "h"}, {"measurement": "Tmax", "setting": "[3]; Tmax", "value": 3.33, "unit": "h"}]}
